In patent US11766443B2, “Cyclopentathiophene carboxamide derivatives as platelet activating factor receptor antagonists” (Boehringer Ingelheim International GmbH, priority 2021, dated 2023):
≈ marks a conversion by molar mass, not a printed value.

How the values were obtained:
[1] = biological target: T1, human PAFR (Homo sapiens, UniProt P25105); experiment: cellular HTRF IP1 endpoint assay: inhibition of PAFR activation by PAF C-16 ligand; type: cell-based; conditions: HEK293 cells overexpressing human PAFR; PAF ligand 11 nM
T1 construct: expressed in transfected cells; host or cells: HEK293
Protocol: The ability of compounds of formula (I.0) to inhibit the activation of the PAF receptor (PAFR) by the PAF C-16 ligand (PAF) is determined using the following cellular HTRF IP1 assay (IP1 Gq assay kit from Cisbio, Cat. no.: 62IP1APEJ) in assay buffer (1×HBSS, 20 mM Hepes, pH 7.4, 50 mM LiCl and containing 0.1% (w/v) BSA):
HEK293 cells overexpressing human PAFR (produced in-house) are seeded into a Poly-D-Lysine coated 384 well white cell culture microtiter assay plate with lid (15.000 cells per well). Subsequently, the plates are incubated over night at 37° C./5% CO2. On the next day, cells are being washed and subsequently, various concentrations of the test compounds (compounds in 100% DMSO; final concentration of DMSO in wells is 1%) are added to the assay plate via Echo 555 acoustic liquid handler. Plates are then incubated with lid for 90 minutes at 37° C./5% CO2. Thereafter, PAF ligand (Cayman Chemical Company, Item no.: 60900) is added at a final concentration of 11 nM. Plates are then incubated with lid for 60 minutes at 37° C./5% CO2. Then, 5 μl per well of Anti-IP1-Anti body-Cryptate solution and 5 μL per well of IP1-d2 solution are added to all wells of the plate and the plate is incubated for another 60 minutes light protected at room temperature. The emissions at 620 nm and 665 nm (Excitation wavelength: 320 nm) are measured using an Envision Reader (PerkinElmer).

[2] = physchem; conditions: pH 2.2, aqueous buffer, kinetic from dmso stock
Protocol: (§1) The aqueous solubility of the test compound is determined by comparing the amount dissolved in buffer to the amount in an ACN/water (1/1) solution. Starting from a 10 mM DMSO stock solution aliquots are diluted with ACN/water (1/1) or buffer, respectively. After 24 h of shaking, the solutions are filtrated and analyzed by LC-UV. The amount dissolved in buffer is compared to the amount in the ACN solution.
(§2) Solubility will usually be measured from 0.001 to 0.125 mg/mL at a DMSO concentration of 2.5%. If more than 90% of the compound is dissolved in buffer, the value is marked with “>”.

[3] = chemical stability in acidic aqueous media (pH ca. 1.2), HPLC recovery; type: physicochemical; conditions: acetonitrile/0.1 M aqueous HCl 2:3, pH ca. 1.2, 37° C.
Protocol: Degradation studies are used to simulate chemical stability of compounds in the acidic part of the gastro intestinal tract. The compounds of the invention show high chemical stability in acidic aqueous media (pH value ca. 1.2) what makes their application as medical drugs to treat human diseases less restricted and troublesome.
The chemical stability of the compounds of the invention at pH value of ca. 1.2 is determined as follows: Compound is dissolved in an HPLC vial in a mixture of acetonitrile/0.1 M aqueous HCl (ratio: 2:3; pH ca. 1.2) to get a concentration of approximately 0.25 mg/ml. The vial is then transferred into an HPLC autosampler system and maintained at a temperature of 37° C. A first sample is taken and injected immediately into a standard HPLC system with a UV DAD detector. A further samples is injected after 24 hours. Amount of degraded compound is measured by determining the recovery rate of compound [%] for the 24 h injection using an HPLC standard gradient method. Therefore the peak area of the main peak for the first injection (AUt0) is determined and set as 100%. Peak area of the main peak is determined also for the 24 h injection (AU24 h) and expressed as fraction of (AU24 h)/(AUt0)[%].

[4] = aqueous solubility in buffer (from DMSO stock, 24 h shaking, LC-UV); conditions: pH 2.2, aqueous buffer, kinetic from dmso stock
Protocol: as §1, §2

T1 sequence (P25105 whole entry): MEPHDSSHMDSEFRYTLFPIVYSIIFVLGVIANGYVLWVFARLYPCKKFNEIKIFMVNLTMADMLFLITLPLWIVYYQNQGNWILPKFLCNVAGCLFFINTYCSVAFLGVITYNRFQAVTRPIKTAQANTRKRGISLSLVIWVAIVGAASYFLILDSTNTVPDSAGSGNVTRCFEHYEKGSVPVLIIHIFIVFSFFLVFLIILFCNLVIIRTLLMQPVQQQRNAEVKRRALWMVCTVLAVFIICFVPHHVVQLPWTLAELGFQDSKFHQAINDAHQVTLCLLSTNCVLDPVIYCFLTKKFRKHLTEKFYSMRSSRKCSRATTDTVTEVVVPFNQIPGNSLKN

| Structure (SMILES) | solubility at 24 h [4] [µg/mL] | IC50 [1] [nM] | solubility at 24 h [2] [µg/mL] | Amount of degradation after 24 h [3] |
| --- | --- | --- | --- | --- |
| Cc1nnc2n1-c1sc3c(c1C(c1ccccc1Cl)NC2)CC(C(=O)N1CCCC2(CC2)C1)C3 (centres unmarked) [Example 66, 13-{5-Azaspiro[2.5]octane-5-carbonyl}-9-(2-chlorophenyl)-3-methyl-16-thia-2,4,5,8-tetraazatetracyclo-[8.6.0.0^2,6.0^11,15]hexadeca-1(10),3,5,11(15)-tetraene] | – | 2.7 | > 124 | – |
| Cc1nnc2n1-c1sc3c(c1[C@H](c1ccccc1Cl)NC2)C[C@H](C(=O)N1CCOC(C)(C)C1)C3 [Example 26] | > 136 | 4.9 | – | 2.5%^ |
| Cc1nnc2n1-c1sc3c(c1[C@H](c1ccccc1Cl)NC2)C[C@H](C(=O)N1CCOCC1)C3 [Example 2, (9R,13S)-9-(2-Chlorophenyl)-3-methyl-13-(morpholine-4-carbonyl)-16-thia-2,4,5,8-tetraazatetracyclo[8.6.0.0^2,6.0^11,15]-hexadeca-1(10),3,5,11(15)-tetraene] | > 117 | 30 | – | 1% |
| Cc1nnc2n1-c1sc3c(c1[C@H](c1ccccc1Cl)NC2)C[C@H](C(=O)NCc1cncnc1)C3 [Example 42] | > 121 | 138 | – | – |
| Cc1nnc2n1-c1sc3c(c1[C@H](c1ccccc1Cl)NC2)C[C@H](C(=O)N[C@@H](C)CF)C3 [Example 20] | > 128 | 4.5 | – | – |
| Cc1nnc2n1-c1sc3c(c1C(c1ccccc1)NC2)CC(C(=O)N1CCOCC1)C3 (centres unmarked) [Example 74] | > 104 | 252 | – | – |
| Cc1nnc2n1-c1sc3c(c1[C@H](c1ccccc1Cl)NC2)C[C@H](C(=O)N[C@@H]1CCC(F)(F)C1)C3 [Example 16] | > 118 | 1.4 | – | – |
| Cc1nnc2n1-c1sc3c(c1[C@@H](c1ccccc1Cl)NC2)C[C@H](C(=O)NCCOC(F)(F)F)C3 [Example 8] | > 121 | 55 | – | – |
| Cc1nnc2n1-c1sc3c(c1[C@H](c1ccccc1Cl)NC2)C[C@H](C(=O)NCCOC(F)(F)F)C3 [Example 17] | > 114 | 2.8 | – | 2% |
| Cc1nnc2n1-c1sc3c(c1[C@H](c1ccccc1Cl)NC2)C[C@H](C(=O)NCc1ccccc1)C3 [Example 31] | > 132 | 1.1 | – | – |
| Cc1nnc2n1-c1sc3c(c1C(c1ccccc1Cl)NC2)C[C@H](C(=O)NC(C)(C)CO)C3 (stereo partly drawn) [Example 65, (13S)-9-(2-Chlorophenyl)-N-(1-hydroxy-2-methylpropan-2-yl)-3-methyl-16-thia-2,4,5,8-tetraazatetracyclo-[8.6.0.0^2,6.0^11,15]hexadeca-1(10),3,5,11(15)-tetraene-13-carboxamide] | > 147 | 11 | – | – |
| Cc1nnc2n1-c1sc3c(c1[C@H](c1ccccc1Cl)NC2)C[C@H](C(=O)NC1CCC1)C3 [Example 28] | > 142 | 1.7 | – | 0.5%^ |
| Cc1nnc2n1-c1sc3c(c1C(c1ccccc1Cl)NC2)CC(C(=O)N1CCOCC1)C3 (racemic) [Example 1, 9-(2-Chlorophenyl)-3-methyl-13-(morpholine-4-carbonyl)-16-thia-2,4,5,8-tetraazatetracyclo[8.6.0.0^2,6.0^11,15]-hexadeca-1(10),3,5,11(15)-tetraene] | > 115 | 102 | – | – |
| Cc1nnc2n1-c1sc3c(c1[C@@H](c1ccccc1Cl)NC2)C[C@H](C(=O)NCc1ccc(C(F)(F)F)cc1)C3 [Example 13] | 88 (≈ 158 µM) | 281 | – | – |
| Cc1nnc2n1-c1sc3c(c1[C@@H](c1ccccc1Cl)NC2)C[C@H](C(=O)N1CCOCC1)C3 [Example 3, (9S,13S)-9-(2-chlorophenyl)-3-methyl-13-(morpholine-4-carbonyl)-16-thia-2,4,5,8-tetraazatetracyclo[8.6.0.0^2,6.0^11,15]-hexadeca-1(10),3,5,11(15)-tetraene] | > 118 | 423 | – | – |
| Cc1ncc(CNC(=O)[C@@H]2Cc3sc4c(c3C2)[C@H](c2ccccc2Cl)NCc2nnc(C)n2-4)s1 [Example 47] | > 115 | 12 | – | – |
| Cc1nnc2n1-c1sc3c(c1[C@H](c1ccccc1Cl)NC2)C[C@H](C(=O)NCc1ncccc1C(F)(F)F)C3 [Example 36] | 95 (≈ 170 µM) | 3 | – | – |
| Cc1nnc2n1-c1sc3c(c1[C@@H](c1ccccc1Cl)NC2)C[C@H](C(=O)NC1CCC1)C3 [Example 9] | > 105 | 34 | – | – |
| Cc1nnc2n1-c1sc3c(c1[C@H](c1ccccc1Cl)NC2)C[C@H](C(=O)NCc1ccc(OC(F)F)nc1)C3 [Example 12] | > 129 | 1.9 | – | – |

Further lines, with some results ahead:

| solubility at 24 h [4] [µg/mL] | Structure (SMILES) | IC50 [1] [nM] | solubility at 24 h [2] [µg/mL] | Amount of degradation after 24 h [3] |
| --- | --- | --- | --- | --- |
| > 111 | CCCNC(=O)[C@@H]1Cc2sc3c(c2C1)[C@H](c1ccccc1Cl)NCc1nnc(C)n1-3 [Example 19] | 3 | – | 3% |
| > 116 | CCc1nnc2n1-c1sc3c(c1[C@@H](c1ccccc1Cl)NC2)C[C@H](C(=O)N1CCOCC1)C3 [Example 68] | > 999 | – | – |
| > 105 | Cc1nnc2n1-c1sc3c(c1[C@H](c1ccccc1Cl)NC2)C[C@H](C(=O)N1CC2CC1C2)C3 [Example 21] | 9.1 | – | 1% |
| > 128 | Cc1nnc2n1-c1sc3c(c1C(c1ccccc1Br)NC2)CC(C(=O)N1CCOCC1)C3 (racemic) [Example 57, 9-(2-Bromophenyl)-3-methyl-13-(morpholine-4-carbonyl)-16-thia-2,4,5,8-tetraazatetracyclo[8.6.0.0^2,6.0^11,15]hexadeca-1(10),3,5,11(15)-tetraene] | 161 | – | – |
| 68 (≈ 137 µM) | O=C(C1Cc2sc3c(c2C1)C(c1ccccc1Cl)NCc1nnc(C2CC2)n1-3)N1CCOCC1 (centres unmarked) [Example 81, 9-(2-Chlorophenyl)-3-cyclopropyl-13-(morpholine-4-carbonyl)-16-thia-2,4,5,8-tetraazatetracyclo[8.6.0.0^2,6.0^11,15]hexadeca-1(10),3,5,11(15)-tetraene] | 224 | – | – |
| > 112 | Cc1nnc2n1-c1sc3c(c1[C@H](c1ccccc1Cl)NC2)C[C@H](C(=O)N1CC2(CCCO2)C1)C3 [Example 22] | 5.3 | – | – |
| > 112 | Cc1nnc2n1-c1sc3c(c1[C@H](c1ccccc1Cl)NC2)C[C@H](C(=O)N1CCC(F)(F)CC1)C3 [Example 18] | 3.1 | – | – |
| > 121 | CCc1nnc2n1-c1sc3c(c1C(c1ccccc1Cl)NC2)CC(C(=O)N1CCOCC1)C3 (centres unmarked) [Example 67] | 73 | – | – |
| > 139 | Cc1nnc2n1-c1sc3c(c1[C@H](c1ccccc1Cl)NC2)C[C@H](C(=O)N1CCC1)C3 [Example 32] | 34 | – | – |
